Data as given in patent US8946201B2, “Methods for inhibiting TGF-β” (Saint Louis University, priority 2007, dated 2015).
Entries after “also recorded” stand apart in the source; their conditions may differ.

How the values were obtained:
TβR-I and TβR-II = test: 125I-TGF-β1 affinity labeling, BAEC; type: cell-based, bovine
Protocol: (B, C, D, E) Cells were treated with increasing concentrations of cholesterol in the presence (C) and absence (B, D, E) of 0.2% β-CD, as indicated. After 1 hr at 37° C., ^125I-TGF-β1 affinity labeling of TβR-I and TβR-II in cells was performed at 0° C. ^125I-TGF-β1 affinity-labeled TβR-I and TβR-II were analyzed by 7.5% SDS-PAGE and autoradiography or quantified with a PhosphoImager. A representative of a total of three analyses is shown (top). The bracket indicates the locations of ^125I-TGF-β affinity-labeled TβR-I and TβR-II. The relative intensities of ^125I-TGF-β1 affinity-labeled TβR-I and TβR-II in cells treated without cholesterol were taken as 100%. The quantitative data from three analyses is shown (bottom).
(A, B, C, D, E, F) Cells were treated with LDL (50 μg protein/ml), VLDL (5 μg protein/ml), HDL (50 μg protein/ml), lipoprotein (a) (10 μg/ml), fluvastatin (F; 1 μM), lovastatin (L; 1 μM), nystatin (Nys; 25 μg/ml), β-CD (β-CD; 8 mM), cholest-4-en-3-one (3-one; 50 μg/ml) or cholesterol (Chol; 50 μg/ml) alone or combination of two. After 1 hr at 37° C. or 16 hr at 37° C. (for fluvastatin and lovastatin), ^125I-TGF-β1 affinity labeling of cell-surface TGF-β receptors was performed at 0° C. ^125I-TGF-β1 affinity-labeled TβR-I and TβR-II were analyzed by 7.5% SDS-PAGE and autoradiography. The relative intensities of TβR-I and TβR-II were quantified with a PhosphoImager. The ratio of ^125I-TGF-β1 binding to TβR-II and TβR-I were estimated. The numbers above the lane sequence denote the ratio of TβR-II/TβR-I.
After cross-linking, cell lysates were analyzed by 7.5% SDS-PAGE and autoradiography or quantified by a PhosphoImager. For all experiments, cholesterol or cholesterol derivatives were prepared as the stock solution with a concentration of 25 mg/ml in ethanol. The final concentration of ethanol in the medium was 0.2% (by vol.).

pig burn wounds = test: Pig skin burn injury model: wound healing and scar; type: in vivo; conditions: topical; for wound closure / open wound: post-burn day 38
Protocol: FIG. 6. Wound closure and scar formation in pig burn wounds treated with cholesterol (CHO). Burn wounds treated with 0.025% cholesterol (A,B) and 0.00625% cholesterol (E,F) and vehicle only (C,D) were photographed immediately after burn injury (A,C,E) and at postburn day 38 (B,D,F). After burn injury, necrosis was present (white) (A,C,E).
Four pigs weighing 20-25 kg were anesthetized by intramuscular injection of ketamine (5 mg/kg), strenil (cazaporonum) (20 mg/kg) and atropine ([…]). Six uniform burn wounds (110° C., 30 sec) were then made symmetrically on the back of each pig using a modified soldering iron with a flat contact area of ˜20 cm^2. […] After wounding, IntraSite gels containing TGF-β antagonist and buffer vehicle (as control) were applied to the pig burn wounds. The burn wound received no topical gel treatment was also used as the other control. All wounds were dressed with paraffin gauze. TGF-β antagonist gel and control gel were applied to the wounds every two days for the first 10 days and twice a week for the next 30 days. All wounds were cleaned and measured prior to each application of the IntraSite gel.
Wound healing was assessed by evaluating the rates of wound re-epithelialization and contraction. The open wound area and the area enclosed by the normal hair bearing skin were measured using the macrophotography technique. The healing rate was monitored every two days for the first 10 days and twice a week for 30 more days. Wound re-epithelialization or contraction as a percent of the original wound size was calculated as described previously.
The volumes of scar were estimated by multiplying their thickness by the size of the scar on post-burn day 41 in pigs and on post-excision day 10 in rabbits.
These include: 1) Cholesterol treatment of cells suppresses TGF-β-induced cellular responsiveness including TGF-β induced Smad2 phosphorylation and nuclear translocation and TGF-β-induced expression of plasminogen activator inhibitor-1 (PAI-1). PAI-1 gene expression has commonly been used as an indicator of TGF-β-induced cellular responsiveness and PAI-1 is involved in inhibiting degradation of ECM proteins. And 2) Cholesterol treatment reverses TGF-β-induced growth inhibition in Mv1Lu cells. Since TGF-β negatively regulates normal wound healing and mediates skin fibrosis and scarring, we decided to test the effect of cholesterol on wound healing and scar formation in a pig skin burn injury model. Six thermal burns (110° C., 30 sec.; ˜20 cm^2, three on each side) were created on the back on each pig (20 kg, female). After wounding, two lesions were treated with a thin-layer of gel containing 0.025% cholesterol; two received gel containing 0.006% cholesterol and two received gel containing vehicle only. Cholesterol and cholesterol gels were applied every 2 days for the first 10 days and twice a week for the nest 30 days at which time re-epithelialization was measured and photographed. […] The volumes of the scar tissue in wound treated with 0.025% and 0.00625% cholesterol were 0.01 and 0.20±0.04 cm^3, respectively. The volume of the scar tissue in wounds treated with vehicle only was 0.45±0.03 cm^3.

effect on binding of 125I-TGF-β1 to TβR-II (TβR-I and TβR-II; increasing concentrations, 1 hr, BAEC) | Compound | increase of 125I-TGF-β1 binding to TβR-I (TβR-I and TβR-II; 50 μg/ml, 1 hr, BAEC) | ratio of TβR-II/TβR-I (TβR-I and TβR-II; 50 μg/ml, 1 hr, BAEC, 3.5 untreated) | volume of the scar tissue (pig burn wounds; 0.00625% cholesterol gel) | wound closure / open wound (pig burn wounds; 0.00625% cholesterol gel) | surface of wounds (pig burn wounds; 0.025% cholesterol gel) | volume of the scar tissue (pig burn wounds; 0.025% cholesterol gel) | wound closure / open wound (pig burn wounds; 0.025% cholesterol gel) | ratio of TβR-II/TβR-I (TβR-I and TβR-II; 1 μM, 37° C. 16 hr, BAEC cells, 2.47 untreated)
did not significant alter | CC(C)CCC[C@@H](C)[C@H]1CC[C@H]2[C@@H]3CC=C4C[C@@H](O)CC[C@]4(C)[C@H]3CC[C@]12C [cholesterol] | ~2.5 fold | 1.4 | 0.20±0.04 cm^3 | no and almost complete | very smooth without apparent scar | 0.01 cm^3 | very little open wound; also recorded: complete | 
 | CC[C@H](C)C(=O)O[C@H]1C[C@@H](C)C=C2C=C[C@H](C)[C@H](CC[C@@H]3C[C@@H](O)CC(=O)O3)[C@H]21 [lovastatin, reference compound] |  |  |  |  |  |  |  | 2.6
